Laboratory results from patent US9315451B2, “Tetracycline compounds” (priority 2009, dated 2016).
Like-named read-outs stand apart in the source and are kept apart here.

Tested on: S. aureus Smith (ATCC 13709)
Test: Mouse systemic infection (septicemia) model, S. aureus Smith
Type: in vivo
Conditions: Staphylococcus aureus; for responders at 3 mg/kg: ATCC13709, iv, read-out: SA Smith septicemia survival IV (3 mg/kg); for responders at 3 mg/kg / responders at 30 mg/kg: 48 h; for responders at 30 mg/kg: ATCC13709, po, read-out: SA Smith septicemia survival PO (30 mg/kg); for ED50: ATCC13709, dose that prevents 50% of the mice from death, 48 hours
Experimental: Mouse Systemic Infection Protocol-S. aureus Smith Septicemia
Compounds were screened for antibacterial activity in vivo in a mouse systemic infection (septicemia) model. In the model, CD-1 female mice (18-22 grams) were injected IP with a S. aureus Smith (ATCC 13709) inoculum that results in 0% survival within 24 to 48 hours. The bacterial dose required to achieve this effect was previously established through virulence studies. At one hour post infection, mice received either […] IV or […] PO. Typically, six mice were treated per dose group. Animal survival was assessed and recorded for 48 hours. Percent survival at 48 hours was recorded and PD50 (mg/kg) was determined for each compound tested.

[1] = CD-1 female mice, IV 3 mg/kg one hour post infection, survival at 48 hours
[2] = CD-1 female mice, PO 30 mg/kg one hour post infection, survival at 48 hours
[3] = CD-1 female mice, PO, read-out: SA Smith septicemia PD50 PO

| Compound | responders at 3 mg/kg [1] [%] | responders at 30 mg/kg [2] [%] | other results |
| --- | --- | --- | --- |
| CN(C)[C@@H]1C(O)=C(C(N)=O)C(=O)[C@@]2(O)C(O)=C3C(=O)c4c(O)cc(CNC56CC7CC(CC(C7)C5)C6)c(F)c4C[C@H]3C[C@@H]12 [Compound S1-14-4] | 100 | 0 |  |
| CN(C)[C@@H]1C(O)=C(C(N)=O)C(=O)[C@@]2(O)C(O)=C3C(=O)c4c(O)cc(CNCC56CC7CC(CC(C7)C5)C6)c(F)c4C[C@H]3C[C@@H]12 [Compound S1-14-25] | 33 | 17 |  |
| CN(C)[C@@H]1C(O)=C(C(N)=O)C(=O)[C@@]2(O)C(O)=C3C(=O)c4c(O)cc(CNC5C6CC7CC(C6)CC5C7)c(F)c4C[C@H]3C[C@@H]12 (some centres unmarked) [Compound S1-14-28] | 33 | 17 |  |
| CN(C)[C@@H]1C(O)=C(C(N)=O)C(=O)[C@@]2(O)C(O)=C3C(=O)c4c(O)cc(CN(CCF)CC5CC5)c(F)c4C[C@H]3C[C@@H]12 [Compound S1-14-31] |  |  | responders at 3 mg/kg: 0%; responders at 30 mg/kg: 0% |
| CCN(Cc1cc(O)c2c(c1F)C[C@H]1C[C@H]3[C@H](N(C)C)C(O)=C(C(N)=O)C(=O)[C@@]3(O)C(O)=C1C2=O)C1(C)CC1 [Compound S1-14-36] | 33 | 0 |  |
| CN(Cc1ccccc1)Cc1cc(O)c2c(c1F)C[C@H]1C[C@H]3[C@H](N(C)C)C(O)=C(C(N)=O)C(=O)[C@@]3(O)C(O)=C1C2=O [Compound S1-14-46] | 0 | 0 |  |
| CCN(Cc1cc(O)c2c(c1F)C[C@H]1C[C@H]3[C@H](N(C)C)C(O)=C(C(N)=O)C(=O)[C@@]3(O)C(O)=C1C2=O)C1(C)CCCC1 [Compound S1-14-73] | 50 | 75 |  |
| CN(C)[C@@H]1C(O)=C(C(N)=O)C(=O)[C@@]2(O)C(O)=C3C(=O)c4c(O)cc(CNC5Cc6ccccc6C5)c(F)c4C[C@H]3C[C@@H]12 [Compound S1-14-90] | 33 | 0 |  |
| CCC1(CNCc2cc(O)c3c(c2F)C[C@H]2C[C@H]4[C@H](N(C)C)C(O)=C(C(N)=O)C(=O)[C@@]4(O)C(O)=C2C3=O)CCC1 [Compound S1-14-91] | 17 | 60 |  |
| CN(C)[C@@H]1C(O)=C(C(N)=O)C(=O)[C@@]2(O)C(O)=C3C(=O)c4c(O)cc(CNCc5ccccc5)c(F)c4C[C@H]3C[C@@H]12 [Compound S1-14-105] | 67 | 0 |  |
| CN(C)[C@@H]1C(O)=C(C(N)=O)C(=O)[C@@]2(O)C(O)=C3C(=O)c4c(O)cc(CN5CCC6(CC5)CC6)c(F)c4C[C@H]3C[C@@H]12 [Compound S1-14-128] | 100 | 100 |  |
| CN(C)[C@@H]1C(O)=C(C(N)=O)C(=O)[C@@]2(O)C(O)=C3C(=O)c4c(O)cc(CN5CCC(C6CC6)CC5)c(F)c4C[C@H]3C[C@@H]12 [Compound S1-14-134] | 50 | 17 |  |
| CN(C)[C@@H]1C(O)=C(C(N)=O)C(=O)[C@@]2(O)C(O)=C3C(=O)c4c(O)cc(CNC(C)(C)CC(C)(C)C)c(F)c4C[C@H]3C[C@@H]12 [Compound S2-4-7] | 67 | 17 |  |
| CN(C)[C@@H]1C(O)=C(C(N)=O)C(=O)[C@@]2(O)C(O)=C3C(=O)c4c(O)cc(CN5CCCCC56CC6)c(F)c4C[C@H]3C[C@@H]12 [Compound S2-4-11] | 0 | 0 |  |
| CN(Cc1cc(O)c2c(c1F)C[C@H]1C[C@H]3[C@H](N(C)C)C(O)=C(C(N)=O)C(=O)[C@@]3(O)C(O)=C1C2=O)CC(C)(C)C [Compound S2-4-21] | 16 | 0 |  |
| CN(C)[C@@H]1C(O)=C(C(N)=O)C(=O)[C@@]2(O)C(O)=C3C(=O)c4c(O)cc(CN(C)C(C)(C)CC(C)(C)C)c(F)c4C[C@H]3C[C@@H]12 [Compound S2-4-30] | 33 |  | ED50 [3]: > 60 mg/kg |
| CCN(Cc1cc(O)c2c(c1F)C[C@H]1C[C@H]3[C@H](N(C)C)C(O)=C(C(N)=O)C(=O)[C@@]3(O)C(O)=C1C2=O)C(C)(C)CC [Compound S2-4-33] | 67 | 33 |  |
| CN(C)[C@@H]1C(O)=C(C(N)=O)C(=O)[C@@]2(O)C(O)=C3C(=O)c4c(O)cc(CN(CC5CC5)C5CC5)c(F)c4C[C@H]3C[C@@H]12 [Compound S2-4-41] | 0 | 0 |  |

| Compound | responders at 3 mg/kg [1] [%] | responders at 30 mg/kg [2] [%] | other results |
| --- | --- | --- | --- |
| CCN(Cc1cc(O)c2c(c1F)C[C@H]1C[C@H]3[C@H](N(C)C)C(O)=C(C(N)=O)C(=O)[C@@]3(O)C(O)=C1C2=O)CC(C)C [Compound S2-4-50] |  |  | ED50 (CD-1 female mice, IV, read-out: SA Smith septicemia PD50 IV): 1 mg/kg; ED50 [3]: 10.1 mg/kg |
| CC(C)[C@@H](C)N(C)Cc1cc(O)c2c(c1F)C[C@H]1C[C@H]3[C@H](N(C)C)C(O)=C(C(N)=O)C(=O)[C@@]3(O)C(O)=C1C2=O [Compound S2-4-57] | 50 | 33 |  |
| CN(C)[C@@H]1C(O)=C(C(N)=O)C(=O)[C@@]2(O)C(O)=C3C(=O)c4c(O)cc(CN(C)C5(C6CC6)CC5)c(F)c4C[C@H]3C[C@@H]12 [Compound S2-4-60] | 17 | 33 |  |
| CCN(Cc1cc(O)c2c(c1F)C[C@H]1C[C@H]3[C@H](N(C)C)C(O)=C(C(N)=O)C(=O)[C@@]3(O)C(O)=C1C2=O)CC1CCCC1 [Compound S2-4-62] | 17 | 25 |  |
| C[C@@H]1CCC[C@H](C)N1Cc1cc(O)c2c(c1F)C[C@H]1C[C@H]3[C@H](N(C)C)C(O)=C(C(N)=O)C(=O)[C@@]3(O)C(O)=C1C2=O [Compound S2-4-66] | 100 | 100 | ED50 [3]: 8.5 mg/kg |
| CN(C)[C@@H]1C(O)=C(C(N)=O)C(=O)[C@@]2(O)C(O)=C3C(=O)c4c(O)cc(CN5CCCCC5(C)C)c(F)c4C[C@H]3C[C@@H]12 [Compound S6-4-1] | 100 | 100 |  |
| CN(C)[C@@H]1C(O)=C(C(N)=O)C(=O)[C@@]2(O)C(O)=C3C(=O)c4c(O)cc(CNCC(C)(C)C)c(Cl)c4C[C@H]3C[C@@H]12 [Compound S15-13-5] | 50 | 17 |  |
| CC(C)[C@@H](C)NCc1cc(O)c2c(c1Cl)C[C@H]1C[C@H]3[C@H](N(C)C)C(O)=C(C(N)=O)C(=O)[C@@]3(O)C(O)=C1C2=O [Compound S15-13-8] | 67 | 50 |  |
| CN(C)[C@@H]1C(O)=C(C(N)=O)C(=O)[C@@]2(O)C(O)=C3C(=O)c4c(O)cc(CN5CCC(C)(C)CC5)c(Cl)c4C[C@H]3C[C@@H]12 [Compound S15-13-16] | 33 | 17 |  |
| CN(C)[C@@H]1C(O)=C(C(N)=O)C(=O)[C@@]2(O)C(O)=C3C(=O)c4c(O)cc(CN5CCOCC5)c(Cl)c4C[C@H]3C[C@@H]12 [Compound S15-13-17] | 100 | 67 |  |
| CN(C)[C@@H]1C(O)=C(C(N)=O)C(=O)[C@@]2(O)C(O)=C3C(=O)c4c(O)cc(CN[C@@H]5CC6CCC5C6)c(Cl)c4C[C@H]3C[C@@H]12 (some centres unmarked) [Compound S15-13-23] | 83 | 50 |  |
| CN(C)[C@@H]1C(O)=C(C(N)=O)C(=O)[C@@]2(O)C(O)=C3C(=O)c4c(O)cc(CN5CC6CCCCC6C5)c(Cl)c4C[C@H]3C[C@@H]12 (some centres unmarked) [Compound S15-13-117] | 33 | 20 |  |
| CC1CCN(Cc2cc(O)c3c(c2Cl)C[C@H]2C[C@H]4[C@H](N(C)C)C(O)=C(C(N)=O)C(=O)[C@@]4(O)C(O)=C2C3=O)CC1 [Compound S15-13-182] | 33 | 67 |  |
| CN(C)[C@@H]1C(O)=C(C(N)=O)C(=O)[C@@]2(O)C(O)=C3C(=O)c4c(O)cc(CN5CC6CCCC6C5)c(Cl)c4C[C@H]3C[C@@H]12 (some centres unmarked) [Compound S15-13-184] | 17 | 0 |  |
| C[C@@H]1CC[C@H](C)N1Cc1cc(O)c2c(c1Cl)C[C@H]1C[C@H]3[C@H](N(C)C)C(O)=C(C(N)=O)C(=O)[C@@]3(O)C(O)=C1C2=O [Compound S15-13-203] | 100 | 100 |  |
| CC(C)N(Cc1cc(O)c2c(c1Cl)C[C@H]1C[C@H]3[C@H](N(C)C)C(O)=C(C(N)=O)C(=O)[C@@]3(O)C(O)=C1C2=O)CC1CC1 [Compound S15-13-215] | 50 | 50 |  |
| C[C@@H]1CCC[C@H](C)N1Cc1cc(O)c2c(c1Cl)C[C@H]1C[C@H]3[C@H](N(C)C)C(O)=C(C(N)=O)C(=O)[C@@]3(O)C(O)=C1C2=O [Compound S15-13-221] | 33 | 50 |  |
